Consider one molecule from PMC5218480 (PLoS ONE, 2017).

This assay has as its system MV-4-11 cells. The experiment in a line: Gene expression microarray analysis (Affymetrix PrimeView) and GSEA. It counts as cell-based, human. Set-up: RFU PODN (11730768_x_at) / Fold change /veh PODN (11730768_x_at) / RFU LINC00158 (11744669_a_at) / Fold change /veh LINC00158 (11744669_a_at) / RFU DUSP10 (11751237_a_at) / Fold change /veh DUSP10 (11751237_a_at) / RFU ID3 (11757404_x_at) / Fold change /veh ID3 (11757404_x_at) / RFU PLEKHG5 (11737974_s_at) / Fold change /veh PLEKHG5 (11737974_s_at) / RFU LRRC4B (11730491_at) / Fold change /veh LRRC4B (11730491_at) / RFU GIMAP4 (11747438_a_at) / Fold change /veh GIMAP4 (11747438_a_at) / RFU KRT8 (11758183_x_at) / Fold change /veh KRT8 (11758183_x_at) / RFU CNN1 (11734310_a_at) / Fold change /veh CNN1 (11734310_a_at) / RFU VPS37D (11726825_at) / Fold change /veh VPS37D (11726825_at) / RFU C10orf10 (11716522_x_at) / Fold change /veh C10orf10 (11716522_x_at) / RFU KIR2DL2 /// KIR2DL4 /// KIR2DL5A /// KIR2DL5B /// KIR2DS1 /// KIR2DS2 /// KIR2DS3 /// KIR2DS4 /// KIR3DL3 /// KIR3DL3 /// KIR3DS1 (11738374_at) / Fold change /veh KIR2DL2 /// KIR2DL4 /// KIR2DL5A /// KIR2DL5B /// KIR2DS1 /// KIR2DS2 /// KIR2DS3 /// KIR2DS4 /// KIR3DL3 /// KIR3DL3 /// KIR3DS1 (11738374_at) / RFU C1QL1 (11718748_at) / Fold change /veh C1QL1 (11718748_at) / RFU TMPRSS4 (11747572_a_at) / Fold change /veh TMPRSS4 (11747572_a_at) / RFU HAMP (11756126_x_at) / Fold change /veh HAMP (11756126_x_at) / RFU RNFT2 (11725882_a_at) / Fold change /veh RNFT2 (11725882_a_at) / RFU NR4A2 (11747474_a_at) / Fold change /veh NR4A2 (11747474_a_at) / RFU ABCC12 (11746883_a_at) / Fold change /veh ABCC12 (11746883_a_at) / RFU TMEM136 (11760407_x_at) / Fold change /veh TMEM136 (11760407_x_at) / RFU CLDN22 /// WWC2 (11732394_at) / Fold change /veh CLDN22 /// WWC2 (11732394_at) / RFU HLA-DPB1 (11760878_x_at) / Fold change /veh HLA-DPB1 (11760878_x_at) / RFU SPINT1 (11716480_a_at) / Fold change /veh SPINT1 (11716480_a_at) / RFU GAP43 (11754022_s_at) / Fold change /veh GAP43 (11754022_s_at) / RFU A4GNT (11735810_at) / Fold change /veh A4GNT (11735810_at) / RFU PRB3 (11715151_x_at) / Fold change /veh PRB3 (11715151_x_at) / RFU TUBB4B (11761932_at) / Fold change /veh TUBB4B (11761932_at) / RFU CAPN14 (11732068_a_at) / Fold change /veh CAPN14 (11732068_a_at) / RFU TMCC2 (11721928_a_at) / Fold change /veh TMCC2 (11721928_a_at) / RFU IRGQ (11745062_a_at) / Fold change /veh IRGQ (11745062_a_at) / RFU FAM174B (11720279_a_at) / Fold change /veh FAM174B (11720279_a_at) / RFU TMPRSS4 (11748680_a_at) / Fold change /veh TMPRSS4 (11748680_a_at) / RFU FAM212B (11763350_a_at) / Fold change /veh FAM212B (11763350_a_at) / RFU PLEKHG5 (11743358_a_at) / Fold change /veh PLEKHG5 (11743358_a_at) / RFU ZSCAN30 (11745921_a_at) / Fold change /veh ZSCAN30 (11745921_a_at) / RFU CMKLR1 (11741424_a_at) / Fold change /veh CMKLR1 (11741424_a_at) / RFU LOC101060620 /// MAPK8IP1 (11723275_at) / Fold change /veh LOC101060620 /// MAPK8IP1 (11723275_at) / RFU SPTSSB (11747773_x_at) / Fold change /veh SPTSSB (11747773_x_at) / RFU PRSS12 (11739890_at) / Fold change /veh PRSS12 (11739890_at) / RFU BIN1 (11741810_x_at) / Fold change /veh BIN1 (11741810_x_at) / RFU WNT11 (11732464_a_at) / Fold change /veh WNT11 (11732464_a_at) / RFU C10orf10 (11716521_a_at) / Fold change /veh C10orf10 (11716521_a_at) / RFU C5orf56 (11738089_at) / Fold change /veh C5orf56 (11738089_at) / RFU CYB561 (11721691_x_at) / Fold change /veh CYB561 (11721691_x_at) / RFU ANKRD19P (11752326_a_at) / Fold change /veh ANKRD19P (11752326_a_at) / RFU OR2T12 /// OR2T33 /// OR2T8 (11738714_s_at) / Fold change /veh OR2T12 /// OR2T33 /// OR2T8 (11738714_s_at) / RFU VCAN (11748164_a_at) / Fold change /veh VCAN (11748164_a_at) / RFU JSRP1 (11732532_at) / Fold change /veh JSRP1 (11732532_at) / RFU KRTAP10-11 (11738290_x_at) / Fold change /veh KRTAP10-11 (11738290_x_at) / RFU MYO3A (11730013_a_at) / Fold change /veh MYO3A (11730013_a_at) / RFU EBF3 (11725865_a_at) / Fold change /veh EBF3 (11725865_a_at) / RFU CAMK2N1 (11719241_x_at) / Fold change /veh CAMK2N1 (11719241_x_at) / RFU C5orf56 (11738088_a_at) / Fold change /veh C5orf56 (11738088_a_at) / RFU OLFML3 (11715873_a_at) / Fold change /veh OLFML3 (11715873_a_at) / RFU LOC100653217 /// NTM (11731650_a_at) / Fold change /veh LOC100653217 /// NTM (11731650_a_at) / RFU MAPK11 (11762145_a_at) / Fold change /veh MAPK11 (11762145_a_at) / RFU FIZ1 (11724087_x_at) / Fold change /veh FIZ1 (11724087_x_at) / RFU OASL (11726364_x_at) / Fold change /veh OASL (11726364_x_at) / RFU SOX15 (11748057_x_at) / Fold change /veh SOX15 (11748057_x_at) / RFU CD79A (11719716_a_at) / Fold change /veh CD79A (11719716_a_at) / RFU HIST1H1D (11736915_at) / Fold change /veh HIST1H1D (11736915_at) / RFU CASKIN2 (11723855_a_at) / Fold change /veh CASKIN2 (11723855_a_at) / RFU LOC730098 (11760151_x_at) / Fold change /veh LOC730098 (11760151_x_at) / RFU OR4N2 (11742367_at) / Fold change /veh OR4N2 (11742367_at) / RFU PRRT2 (11749266_a_at) / Fold change /veh PRRT2 (11749266_a_at) / RFU SNX32 (11753110_a_at) / Fold change /veh SNX32 (11753110_a_at) / RFU CDHR5 (11726645_a_at) / Fold change /veh CDHR5 (11726645_a_at) / RFU RCAN1 (11760418_a_at) / Fold change /veh RCAN1 (11760418_a_at) / RFU FAM167A (11723789_a_at) / Fold change /veh FAM167A (11723789_a_at) / RFU FAM26E (11764081_at) / Fold change /veh FAM26E (11764081_at) / RFU ISYNA1 (11749810_s_at) / Fold change /veh ISYNA1 (11749810_s_at) / RFU ACY1 (11761880_at) / Fold change /veh ACY1 (11761880_at) / RFU 11764098_at / Fold change /veh 11764098_at / RFU SAMD14 (11745864_x_at) / Fold change /veh SAMD14 (11745864_x_at) / RFU NPB (11741838_a_at) / Fold change /veh NPB (11741838_a_at) / RFU TMPRSS6 (11731388_a_at) / Fold change /veh TMPRSS6 (11731388_a_at) / RFU KRTAP10-2 (11738614_at) / Fold change /veh KRTAP10-2 (11738614_at) / RFU ARHGAP8 /// PRR5-ARHGAP8 (11727945_x_at) / Fold change /veh ARHGAP8 /// PRR5-ARHGAP8 (11727945_x_at) / RFU KRTAP5-7 /// NADSYN1 (11734609_at) / Fold change /veh KRTAP5-7 /// NADSYN1 (11734609_at) / RFU RASL12 (11751679_a_at) / Fold change /veh RASL12 (11751679_a_at) / RFU CDKN2B (11736163_a_at) / Fold change /veh CDKN2B (11736163_a_at) / RFU PRF1 (11729649_at) / Fold change /veh PRF1 (11729649_at) / RFU, ZNF638 /// ZNF638-IT1 / Fold change vs veh, ZNF638 /// ZNF638-IT1 / RFU, PANK3 / Fold change vs veh, PANK3 / RFU, SH3YL1 / Fold change vs veh, SH3YL1 / RFU, ZEB2 / Fold change vs veh, ZEB2 / RFU, NRIP1 / Fold change vs veh, NRIP1 / RFU, PTTG1IP / Fold change vs veh, PTTG1IP / RFU, CAPN2 / Fold change vs veh, CAPN2 / RFU, MED14 / Fold change vs veh, MED14 / RFU, SNORA58 / Fold change vs veh, SNORA58 / RFU, C1orf63 / Fold change vs veh, C1orf63 / RFU, LRRFIP1 / Fold change vs veh, LRRFIP1 / RFU, NDUFAF7 / Fold change vs veh, NDUFAF7 / RFU, SLC12A2 / Fold change vs veh, SLC12A2 / RFU, IBTK / Fold change vs veh, IBTK / RFU, ESF1 / Fold change vs veh, ESF1 / Fold change vs veh, TMEM50B / RFU, TAOK1 / Fold change vs veh, TAOK1 / RFU, ACBD3 / Fold change vs veh, ACBD3 / RFU, TMA16 / Fold change vs veh, TMA16 / RFU, RWDD3 / Fold change vs veh, RWDD3 / RFU, BCAT1 / Fold change vs veh, BCAT1 / RFU, EDEM3 / Fold change vs veh, EDEM3 / RFU, TMEM33 / Fold change vs veh, TMEM33 / RFU, WDR75 / Fold change vs veh, WDR75 / RFU, AHCTF1 / Fold change vs veh, AHCTF1 / RFU, TFRC / Fold change vs veh, TFRC / RFU, ZDHHC17 / Fold change vs veh, ZDHHC17 / RFU, NOM1 / Fold change vs veh, NOM1 / RFU, ARL8B / Fold change vs veh, ARL8B / RFU, ZBTB11 / Fold change vs veh, ZBTB11 / RFU, TAMM41 / Fold change vs veh, TAMM41 / RFU, KIAA1704 /// LOC100996395 / Fold change vs veh, KIAA1704 /// LOC100996395 / RFU, ING1 / Fold change vs veh, ING1 / RFU, TRMT61B / Fold change vs veh, TRMT61B / RFU, FUBP3 / Fold change vs veh, FUBP3 / RFU, TP53 / Fold change vs veh, TP53 / RFU, TNKS2 / Fold change vs veh, TNKS2 / RFU, ZFP14 / Fold change vs veh, ZFP14 / RFU, ACTR2 / Fold change vs veh, ACTR2 / RFU, PPP3R1 / Fold change vs veh, PPP3R1 / RFU, PIK3R1 / Fold change vs veh, PIK3R1 / RFU, HNRNPA1 / Fold change vs veh, HNRNPA1 / RFU, RNF170 / Fold change vs veh, RNF170 / RFU, ZNF28 / Fold change vs veh, ZNF28 / RFU, RNGTT / Fold change vs veh, RNGTT / RFU, OGT / Fold change vs veh, OGT / RFU, BRD1 / Fold change vs veh, BRD1 / RFU, MARS / Fold change vs veh, MARS / RFU, ZNF655 / Fold change vs veh, ZNF655 / RFU, FAHD1 / Fold change vs veh, FAHD1 / RFU, BDP1 / Fold change vs veh, BDP1 / RFU, LRRCC1 / Fold change vs veh, LRRCC1 / RFU, ARID1A / Fold change vs veh, ARID1A / RFU, ZNF146 / Fold change vs veh, ZNF146 / RFU, ZNF330 / Fold change vs veh, ZNF330 / RFU, GPN3 / Fold change vs veh, GPN3 / RFU, C9orf123 / Fold change vs veh, C9orf123 / RFU, N4BP2L2 / Fold change vs veh, N4BP2L2 / RFU, ARFIP1 / Fold change vs veh, ARFIP1 / RFU, FAM179B / Fold change vs veh, FAM179B / RFU, BCL10 / Fold change vs veh, BCL10 / RFU, UHRF1BP1L / Fold change vs veh, UHRF1BP1L / RFU, BET1 / Fold change vs veh, BET1 / RFU, CNOT2 / Fold change vs veh, CNOT2 / RFU, ZNF268 / Fold change vs veh, ZNF268 / Fold change vs veh, ZNF507 / RFU, DGCR2 / Fold change vs veh, DGCR2 / RFU, WDSUB1 / Fold change vs veh, WDSUB1 / Fold change vs veh, HSP90B1 /// MIR3652 / RFU, ADSS / Fold change vs veh, ADSS / RFU, GK / Fold change vs veh, GK / RFU, ZNF148 / Fold change vs veh, ZNF148 / RFU, TAF9 / Fold change vs veh, TAF9 / RFU, SLC1A5 / Fold change vs veh, SLC1A5 / RFU, SLMO2 / Fold change vs veh, SLMO2 / RFU, ABCC4 / Fold change vs veh, ABCC4 / RFU, LOC101060439 /// RAP1B / Fold change vs veh, LOC101060439 /// RAP1B / RFU, RFX7 / Fold change vs veh, RFX7 / RFU, GTPBP10 / Fold change vs veh, GTPBP10 / RFU, CNEP1R1 / Fold change vs veh, CNEP1R1 / RFU, BIVM-ERCC5 /// ERCC5 / Fold change vs veh, BIVM-ERCC5 /// ERCC5 / RFU, ILF3 / Fold change vs veh, ILF3 / RFU 11762660_at / Fold change /veh 11762660_at / RFU VCAN (11757783_s_at) / Fold change /veh VCAN (11757783_s_at) / RFU DDX43 (11728927_at) / Fold change /veh DDX43 (11728927_at) / RFU KRT8 (11758188_x_at) / Fold change /veh KRT8 (11758188_x_at) / RFU NKD1 (11759106_at) / Fold change /veh NKD1 (11759106_at) / RFU SRD5A1 (11742802_a_at) / Fold change /veh SRD5A1 (11742802_a_at) / RFU TPSAB1 /// TPSB2 (11721975_s_at) / Fold change /veh TPSAB1 /// TPSB2 (11721975_s_at) / RFU GSTM3 (11746129_a_at) / Fold change /veh GSTM3 (11746129_a_at) / RFU IL23R (11737362_x_at) / Fold change /veh IL23R (11737362_x_at) / RFU TMEM51 (11727254_a_at) / Fold change /veh TMEM51 (11727254_a_at) / RFU PIWIL2 (11732686_x_at) / Fold change /veh PIWIL2 (11732686_x_at) / RFU ORM1 (11744905_x_at) / Fold change /veh ORM1 (11744905_x_at) / RFU CCDC152 (11743942_at) / Fold change /veh CCDC152 (11743942_at) / RFU ECM1 (11717891_a_at) / Fold change /veh ECM1 (11717891_a_at) / RFU IL23R (11748794_a_at) / Fold change /veh IL23R (11748794_a_at) / RFU TNFAIP8L3 (11732012_x_at) / Fold change /veh TNFAIP8L3 (11732012_x_at) / RFU MBOAT4 (11741988_at) / Fold change /veh MBOAT4 (11741988_at) / RFU 11764193_at / Fold change /veh 11764193_at / RFU TMEM53 (11763286_at) / Fold change /veh TMEM53 (11763286_at) / RFU MAGEB2 (11727129_at) / Fold change /veh MAGEB2 (11727129_at) / RFU TMEM200A (11744735_a_at) / Fold change /veh TMEM200A (11744735_a_at) / RFU CCDC152 (11751479_a_at) / Fold change /veh CCDC152 (11751479_a_at) / RFU FAM211A (11726209_a_at) / Fold change /veh FAM211A (11726209_a_at) / RFU RGS16 (11746705_a_at) / Fold change /veh RGS16 (11746705_a_at) / RFU VCAN (11755009_s_at) / Fold change /veh VCAN (11755009_s_at) / RFU RHOB (11743442_s_at) / Fold change /veh RHOB (11743442_s_at) / RFU RGS16 (11720943_a_at) / Fold change /veh RGS16 (11720943_a_at) / RFU RGS16 (11720944_at) / Fold change /veh RGS16 (11720944_at) / RFU, VPS4B / Fold change vs veh, VPS4B / RFU, CREB1 / Fold change vs veh, CREB1 / RFU, DNAJC13 / Fold change vs veh, DNAJC13 / RFU, GNAQ / Fold change vs veh, GNAQ / RFU, CDK5R1 / Fold change vs veh, CDK5R1 / RFU, ZRANB3 / Fold change vs veh, ZRANB3 / RFU, CUL4A / Fold change vs veh, CUL4A / RFU, CCNY / Fold change vs veh, CCNY / RFU, UFL1 / Fold change vs veh, UFL1 / RFU, COG3 / Fold change vs veh, COG3 / RFU, DIAPH2 / Fold change vs veh, DIAPH2 / RFU, SKA2 / Fold change vs veh, SKA2 / RFU, AFF3 / Fold change vs veh, AFF3 / RFU, LMF1 / Fold change vs veh, LMF1 / RFU, IPO11 / Fold change vs veh, IPO11 / RFU, DFFB / Fold change vs veh, DFFB / RFU, FOXP1 / Fold change vs veh, FOXP1 / RFU, CARD8 / Fold change vs veh, CARD8 / RFU, STRN3 / Fold change vs veh, STRN3 / RFU, ADK / Fold change vs veh, ADK / RFU, RASSF2 / Fold change vs veh, RASSF2 / RFU, WIPF1 / Fold change vs veh, WIPF1 / RFU, LARP1B / Fold change vs veh, LARP1B / RFU, RASA1 / Fold change vs veh, RASA1 / RFU, RB1 / Fold change vs veh, RB1 / RFU, PPFIA1 / Fold change vs veh, PPFIA1 / RFU, MAT2A / Fold change vs veh, MAT2A / RFU, CCT5 / Fold change vs veh, CCT5 / RFU, WDR92 / Fold change vs veh, WDR92 / RFU, CUX1 / Fold change vs veh, CUX1 / RFU, TTC7A / Fold change vs veh, TTC7A / RFU, TMEM135 / Fold change vs veh, TMEM135 / RFU, DEPTOR / Fold change vs veh, DEPTOR / RFU, CPM / Fold change vs veh, CPM / RFU, DNAJB6 / Fold change vs veh, DNAJB6 / RFU, CACNA2D3 / Fold change vs veh, CACNA2D3 / RFU, DTX4 / Fold change vs veh, DTX4 / RFU, TFCP2 / Fold change vs veh, TFCP2 / RFU, GMCL1 /// GMCL1P1 / Fold change vs veh, GMCL1 /// GMCL1P1 / RFU, AEBP2 / Fold change vs veh, AEBP2 / RFU, SNHG1 /// SNORD22 /// SNORD25 /// SNORD26 /// SNORD27 /// SNORD28 /// SNORD29 /// SNORD31 / Fold change vs veh, SNHG1 /// SNORD22 /// SNORD25 /// SNORD26 /// SNORD27 /// SNORD28 /// SNORD29 /// SNORD31 / Fold change (Aza/veh), C12orf56 (ProbeSet 11735607_a_at) / Fold change (ACY-1035/veh), C12orf56 (ProbeSet 11735607_a_at) / Fold change (Aza/veh), FGFR1OP (ProbeSet 11751329_s_at) / Fold change (ACY-1035/veh), FGFR1OP (ProbeSet 11751329_s_at) / Fold change (Aza/veh), VPS36 (ProbeSet 11739960_a_at) / Fold change (ACY-1035/veh), VPS36 (ProbeSet 11739960_a_at) / RFU SYPL1 (11715823_x_at) / Fold change /veh SYPL1 (11715823_x_at) / RFU IGFBP7 (11715501_s_at) / Fold change /veh IGFBP7 (11715501_s_at) / RFU REEP3 (11722064_at) / Fold change /veh REEP3 (11722064_at) / RFU IGLL1 (11728026_x_at) / Fold change /veh IGLL1 (11728026_x_at): dose or concentration left out as unconfirmed. The note with it: ProbeSet 11721969_s_at; LIST B.

With `Nc1ncn([C@@H]2O[C@H](CO)[C@@H](O)[C@H]2O)c(=O)n1` [azacitidine], the “Fold change vs veh, BDP1” value stood at 0.86.
